Where a name gives a salt, the structure may show the parent alone.
These compounds were tested against T1, full length SGK1 (Homo sapiens, UniProt O00141) (assay: SGK1 inhibition Assay A (Caliper LabChip electrophoretic separation of fluorescent peptide substrate and phosphorylated product)). Settings: Assay A; 20 μM ATP, 40 min incubation; read-out: SGK1 IC50.
T1 construct: 125 μM full length SGK1 (Life Technologies Part #PR7358A); purchased Life Technologies PR7358A
T1 sequence (O00141 1-431): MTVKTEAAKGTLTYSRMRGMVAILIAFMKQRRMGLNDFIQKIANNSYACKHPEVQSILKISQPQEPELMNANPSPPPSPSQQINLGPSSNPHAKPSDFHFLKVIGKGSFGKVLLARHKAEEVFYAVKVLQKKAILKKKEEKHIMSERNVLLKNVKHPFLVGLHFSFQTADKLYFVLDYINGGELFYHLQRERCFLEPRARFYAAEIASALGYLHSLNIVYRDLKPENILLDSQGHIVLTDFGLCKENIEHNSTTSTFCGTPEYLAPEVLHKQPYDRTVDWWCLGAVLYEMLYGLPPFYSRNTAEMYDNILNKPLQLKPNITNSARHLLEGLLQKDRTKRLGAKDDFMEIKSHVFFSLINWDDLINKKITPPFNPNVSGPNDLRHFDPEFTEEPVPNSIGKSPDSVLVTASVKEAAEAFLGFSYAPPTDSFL
Assay type: biochemical

| IC50 | Compound |
| --- | --- |
| 3 nM | CN(C)CCOc1cc(Cl)sc1C(=O)N[C@@H]1CCCN(c2cc(-c3ccc(C#N)c(F)c3)n3ncnc(N)c23)C1 [Example 279, (R)-N-(1-(4-amino-7-(4-cyano-3-fluorophenyl)pyrrolo[2,1-f][1,2,4]triazin-5-yl)piperidin-3-yl)-5-chloro-3-(2-(dimethylamino)ethoxy) thiophene-2-carboxamide] |
| 80 nM | N#Cc1ccc(C(=O)N[C@@H]2CCCN(c3cc(C#N)n4ncnc(N)c34)C2)s1 [Example 696, (R)—N-(1-(4-amino-7-cyanopyrrolo[2,1-f][1,2,4]triazin-5-yl)piperidin-3-yl)-5-cyanothiophene-2-carboxamide] |
| 32 nM | CC1(C)CC1C(=O)N1CC=C(c2cc(N3CCC[C@@H](NC(=O)c4sc(Cl)cc4OCCN4CCOCC4)C3)c3c(N)ncnn23)C1 (stereo partly drawn) [Example 261, N-((3R)-1-(4-amino-7-(1-(2,2-dimethylcyclopropane-1-carbonyl)-2,5-dihydro-1H-pyrrol-3-yl)pyrrolo[2,1-f] [1,2,4]triazin-5-yl)piperidin-3-yl)-5-chloro-3-(2-morpholinocthoxy)thiophene-2-carboxamide] |
| 81 nM | CC(=O)N1CC=C(c2cc(N3CCC[C@@H](NC(=O)c4ccccn4)C3)c3c(N)ncnn23)C1 [Example 728, (R)-N-(1-(7-(1-acetyl-2,5-dihydro-1H-pyrrol-3-yl)-4-aminopyrrolo[2,1-f][1,2,4]triazin-5-yl)piperidin-3-yl)picolinamide] |
| 8 nM | Nc1ncnn2c(-c3ccc(OCC(F)F)nc3)cc(N3CCC[C@@H](NC(=O)c4ccc(Cl)s4)C3)c12 [Example 534, (R)-N-(1-(4-amino-7-(6-(2,2-difluoroethoxy)pyridin-3-yl)pyrrolo[2,1-f][1,2,4]triazin-5-yl)piperidin-3-yl)-5-chlorothiophene-2-carboxamide] |
| 916 nM | CS(=O)(=O)c1ccc(-c2cc(N3CCC[C@@H](NS(=O)(=O)c4ccccc4)C3)c3c(N)ncnn23)cc1 [Example 274, (R)—N-(1-(4-amino-7-(4-(methylsulfonyl)phenyl)pyrrolo[2,1-f][1,2,4]triazin-5-yl)piperidin-3-yl)benzenesulfonamide] |
| 6 nM | COCCOc1cc(Cl)sc1C(=O)N[C@@H]1CCCN(c2cc(C3=CCN(S(C)(=O)=O)C3)n3ncnc(N)c23)C1 [Example 140, (R)—N-(1-(4-amino-7-(1-(methylsulfonyl)-2,5-dihydro-1H-pyrrol-3-yl)pyrrolo[2,1-f][1,2,4]triazin-5-yl)piperidin-3-yl)-5-chloro-3-(2-methoxyethoxy)thiophene-2-carboxamide] |
| 229 nM | CC(C)N1CCC(c2cc(C(F)F)sc2C(=O)N[C@@H]2CCCN(c3cc(-c4ccc(C#N)nc4)n4ncnc(N)c34)C2)C1 (stereo partly drawn) [Example 403, N-((R)-1-(4-amino-7-(6-cyanopyridin-3-yl)pyrrolo[2,1-f][1,2,4]triazin-5-yl)piperidin-3-yl)-5-(difluoromethyl)-3-(1-isopropylpyrrolidin-3-yl)thiophene-2-carboxamide] |
| 11 nM | CC(=O)N1CCC(Oc2cc(C(F)F)sc2C(=O)N[C@@H]2CCCN(c3cc(-c4ccc(=O)n(CC(F)F)c4)n4ncnc(N)c34)C2)CC1 [Example 414, (R)-3-((1-acetylpiperidin-4-yl)oxy)-N-(1-(4-amino-7-(1-(2,2-difluoroethyl)-6-oxo-1,6-dihydropyridin-3-yl)pyrrolo[2,1-f][1,2,4]triazin-5-yl)piperidin-3-yl)-5-(difluoromethyl)thiophene-2-carboxamide] |
| 18 nM | CC(=O)N1CC=C(c2cc(N3CCC[C@@H](NC(=O)c4sc(C(F)F)cc4OC4COC4)C3)c3c(N)ncnn23)C1 [Example 433, (R)—N-(1-(7-(1-acetyl-2,5-dihydro-1H-pyrrol-3-yl)-4-aminopyrrolo[2,1-f][1,2,4]triazin-5-yl)piperidin-3-yl)-5-(difluoromethyl)-3-(oxetan-3-yloxy)thiophene-2-carboxamide] |
| 47 nM | Cc1nc(OCCN(C)C)c(C(=O)N[C@@H]2CCCN(c3cc(-c4ccc(=O)n(CC(C)C)c4)n4ncnc(N)c34)C2)s1 [Example 355, (R)-N-(1-(4-amino-7-(1-isobutyl-6-oxo-1,6-dihydropyridin-3-yl)pyrrolo[2,1-f][1,2,4]triazin-5-yl)piperidin-3-yl)-4-(2-(dimethylamino)ethoxy)-2-methylthiazole-5-carboxamide] |
| 2 nM | COC(=O)N1CC=C(c2cc(N3CCC[C@@H](NC(=O)c4sc5ccccc5c4OC4CCN(CCO)CC4)C3)c3c(N)ncnn23)C1 [Example 660, methyl (R)-3-(4-amino-5-(3-(3-((1-(2-hydroxyethyl)piperidin-4-yl)oxy)benzo[b]thiophene-2-carboxamido)piperidin-1-yl)pyrrolo[2,1-f][1,2,4]triazin-7-yl)-2,5-dihydro-1H-pyrrole-1-carboxylate] |
| 679 nM | CC(=O)N1CC=C(c2cc(N3CCC[C@@H](NC(=O)c4cccc(NC5CN(C)C5)n4)C3)c3c(N)ncnn23)C1 [Example 766, (R)-N-(1-(7-(1-acetyl-2,5-dihydro-1H-pyrrol-3-yl)-4-aminopyrrolo[2,1-f][1,2,4]triazin-5-yl)piperidin-3-yl)-6-((1-methylazetidin-3-yl)amino)picolinamide] |
| 14 nM | C=Cc1cccc(C(=O)N[C@@H]2CCCN(c3cc(-c4ccc(S(C)(=O)=O)cc4)n4ncnc(N)c34)C2)c1 [Example 80, (R)-N-(1-(4-amino-7-(4-(methylsulfonyl)phenyl)pyrrolo[2,1-f][1,2,4]triazin-5-yl)piperidin-3-yl)-3-vinylbenzamide] |
| 19 nM | Cn1cc(-c2cc(N3CCC[C@@H](NC(=O)c4ccc(Cl)s4)C3)c3c(N)ncnn23)c(C2CC2)n1 [Example 203, (R)—N-(1-(4-amino-7-(3-cyclopropyl-1-methyl-1H-pyrazol-4-yl)pyrrolo[2,1-f][1,2,4]triazin-5-yl)piperidin-3-yl)-5-chlorothiophene-2-carboxamide, TFA] |
| 2 nM | Cc1cc(N2CCN(C)CC2)c(C(=O)N[C@@H]2CCCN(c3cc(-c4ccnc(F)c4)n4ncnc(N)c34)C2)s1 [Example 199, (R)—N-(1-(4-amino-7-(2-fluoropyridin-4-yl)pyrrolo[2,1-f][1,2,4]triazin-5-yl)piperidin-3-yl)-5-methyl-3-(4-methylpiperazin-1-yl)thiophene-2-carboxamide, 3 TFA] |
| 146 nM | CC(=O)N1CC=C(c2cc(N3CCC[C@@H](NC(=O)c4nn(-c5ccccc5)nc4C)C3)c3c(N)ncnn23)C1 [Example 471, (R)-N-(1-(7-(1-acetyl-2,5-dihydro-1H-pyrrol-3-yl)-4-aminopyrrolo[2,1-f][1,2,4]triazin-5-yl)piperidin-3-yl)-5-methyl-2-phenyl-2H-1,2,3-tricazole-4-arboxamide] |
| 14 nM | CC(=O)N1CC=C(c2cc(N3CCC[C@@H](NC(=O)c4sc(C)nc4OCCN(C)C)C3)c3c(N)ncnn23)C1 [Example 352, (R)—N-(1-(7-(1-acetyl-2,5-dihydro-1H-pyrrol-3-yl)-4-aminopyrrolo[2,1-f][1,2,4]triazin-5-yl)piperidin-3-yl)-4-(2-(dimethylamino)ethoxy)-2-methylthiazole-5-carboxamide] |
| 114 nM | Cn1cc(-c2cc(N3CCC[C@@H](NC(=O)c4ccc(Cl)s4)C3)c3c(N)ncnn23)nn1 [Example 868, (R)—N-(1-(4-amino-7-(1-methyl-1H-1,2,3-triazol-4-yl)pyrrolo[2,1-f][1,2,4]triazin-5-yl)piperidin-3-yl)-5-chlorothiophene-2-carboxamide] |

Reference: patent publication US20260250290A1 (BRISTOL-MYERS SQUIBB COMPANY, priority 2023, published 2026)
